Assay results taken from paper PMC12186257, “Serendipitous and Systematic Chemoproteomic Discovery of MBLAC2, HINT1, and NME1‑4 Inhibitors from Histone Deacetylase-Targeting Pharmacophores” (ACS Chemical Biology, 2025).

Columns and labels:
ALDH2 = molecular target: T1, ALDH2 (Homo sapiens, UniProt P05091); experiment: chemoproteomic competition assay (MV4-11/SW620 lysate, iA/iC/iQ beads, MS readout); type: binding; conditions: nine-dose competition assay; range stated for ALDH2 and GATD3A together
T1 construct: incubated at increasing concentrations with a mixture of lysates of MV4–11 and SW620 cells; endogenous in cells; host or cells: mixed lysate of MV4-11 and SW620 cells
T1 sequence (P05091 18-517): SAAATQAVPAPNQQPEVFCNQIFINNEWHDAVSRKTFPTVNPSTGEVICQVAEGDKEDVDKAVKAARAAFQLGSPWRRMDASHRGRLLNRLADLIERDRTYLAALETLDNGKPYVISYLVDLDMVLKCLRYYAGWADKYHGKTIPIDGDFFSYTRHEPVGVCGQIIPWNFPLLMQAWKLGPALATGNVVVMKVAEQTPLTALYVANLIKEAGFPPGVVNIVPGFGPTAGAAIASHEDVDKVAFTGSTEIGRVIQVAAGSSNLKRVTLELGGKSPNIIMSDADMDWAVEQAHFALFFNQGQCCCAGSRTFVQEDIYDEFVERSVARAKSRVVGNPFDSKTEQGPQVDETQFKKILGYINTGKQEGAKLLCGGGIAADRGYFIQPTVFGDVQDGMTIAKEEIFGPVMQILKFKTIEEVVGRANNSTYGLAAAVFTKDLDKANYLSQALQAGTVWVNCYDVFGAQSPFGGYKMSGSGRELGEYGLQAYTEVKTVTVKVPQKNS
Protocol: (§1) MBLAC2 is a metalloenzyme predicted to harbor one or two Zn^2+ ions in its active site. […] In this assay, compounds of interest are incubated at increasing concentrations with a mixture of lysates of MV4–11 and SW620 cells. The compound-treated lysates are then mixed with bead-immobilized hydroxamic acid-containing compounds iA, iC, and iQ (immobilized Quisinostat), which pull down compound-binding proteins such as HDACs, MBLAC2, ISOC1/2, ALDH2, and GATD3A (Figure a) that can be identified and quantified by mass spectrometry (MS). Proteins targeted by the library compounds in a preincubation step are prevented from being pulled down by the immobilized probes, leading to a dose-dependent reduction in MS signal. Initially, 12 metal-chelating compounds were profiled at two concentrations (10 μM and 100 μM) (Figure S3).
(§2) Chemoproteomic competition assays
(§3) Sample preparation. […]
(§4) LC-MS/MS. The different sample types were measured with different LC-MS/MS settings. MBLAC2 2-dose competition assays were measured with the Lumos1 setup, MBLAC2 9-dose competition assays were measured with the Lumos2 setup, and kinobeads assays were measured with the Eclipse setup.
(§5) Peptides were analyzed via LC–MS/MS on a Dionex Ultimate3000 nano HPLC coupled to either one of two Orbitrap Fusion Lumos mass spectrometers, or to an Orbitrap Eclipse mass spectrometer, operated via the Thermo Scientific Xcalibur software. […]
(§6) In Lumos settings, up to 12 peptide precursors were isolated in (isolation width of 1.2 Th for Lumos1 and 1.7 for Lumos2, maximum injection time of 75 ms, AGC value of 1e5 for Lumos1 and 2e5 for Lumos2), fragmented by HCD using 30% normalized collision energy (NCE) and analyzed in the Orbitrap at a resolution of 15,000 (Lumos2) or 30,000 (Lumos1). […] Peptides were isolated in the quadrupole with an isolation offset of 1.2 (isolation width of 1.2 Th, maximum injection time of 54 ms, AGC target of 200%) and fragmented by HCD with an NCE of 30% and analyzed in the Orbitrap at a resolution of 30,000. […]

GATD3A = molecular target: T2, GATD3A (Homo sapiens, UniProt P0DPI2); experiment: as above; type: binding; conditions: nine-dose competition assay; range stated for ALDH2 and GATD3A together
T2 construct: incubated at increasing concentrations with a mixture of lysates of MV4–11 and SW620 cells; endogenous in cells; host or cells: mixed lysate of MV4-11 and SW620 cells
T2 sequence (P0DPI2 42-268): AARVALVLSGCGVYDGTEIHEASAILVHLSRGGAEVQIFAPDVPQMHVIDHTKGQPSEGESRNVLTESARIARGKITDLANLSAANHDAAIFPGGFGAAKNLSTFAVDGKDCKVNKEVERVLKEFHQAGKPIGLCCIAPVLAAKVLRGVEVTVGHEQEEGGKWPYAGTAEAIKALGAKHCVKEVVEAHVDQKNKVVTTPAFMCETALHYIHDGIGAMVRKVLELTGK
Protocol: as §1, §2, §3, §4, §5, §6

EC50 (ALDH2): 23 to 30 µM
EC50 (GATD3A): 23 to 30 µM
Structure (SMILES): CC(C)Cc1ccc(C(C)C(=O)NO)cc1 (centres unmarked) [Ibuproxam]
